Measurements from patent publication US10597388B2, “Pyridazinone herbicides” (FMC CORPORATION, priority 2014, dated 2020).

Assays:
Format in all cases: in vivo
[1] = tested on: kochia (Kochia scoparia); experiment: Test A greenhouse herbicide test, pre- and postemergence
Summary of the method: (§1)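 Visual injury ratings, 0 (no effect) to 100 (complete control), versus untreated plants after roughly 10 d in a greenhouse. Compounds, formulated in a surfactant-containing non-phytotoxic solvent, were sprayed on loam–sand soil after sowing (pre) or on one- to two-leaf plants 2–10 cm tall (post).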

[2] = tested on: ragweed (common ragweed, Ambrosia elatior); experiment: as above
Summary of the method: as §1

[3] = tested on: corn (Zea mays); experiment: as above; settings: Postemergence; for Plant response rating, Corn: 125 g ai/ha, 0 to 100 scale where 0 is no effect and 100 is complete control; for Corn plant response rating: 500 g ai/ha, 0 to 100 scale, 0 is no effect, 100 is complete control
Summary of the method: as §1

[4] = tested on: wheat (Triticum aestivum); experiment: as above; settings: Postemergence; for Plant response rating, Wheat: 125 g ai/ha, 0 to 100 scale where 0 is no effect and 100 is complete control; for Wheat plant response rating: 500 g ai/ha, 0 to 100 scale, 0 is no effect, 100 is complete control
Summary of the method: as §1

[5] = tested on: ryegrass, Italian (Italian ryegrass, Lolium multiflorum); experiment: as above
Summary of the method: as §1

[6] = tested on: foxtail, giant (giant foxtail, Setaria faberii); experiment: as above
Summary of the method: as §1

[7] = tested on: blackgrass (Alopecurus myosuroides); experiment: Test A greenhouse herbicide test, postemergence; settings: for Plant response rating, Blackgrass: 125 g ai/ha, 0 to 100 scale where 0 is no effect and 100 is complete control; for Blackgrass plant response rating: 500 g ai/ha, 0 to 100 scale, 0 is no effect, 100 is complete control
Summary of the method: (§2)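 Seedlings in a loam soil and sand mix received formulated compound postemergence at the one- to two-leaf stage. Greenhouse holding lasts approximately 10 d, then injury is scored visually relative to untreated plants, 0 meaning no effect and 100 complete control.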

[8] = tested on: galium (catchweed bedstraw, Galium aparine); experiment: Test A greenhouse herbicide test, postemergence; settings: for Plant response rating, Galium: 125 g ai/ha, 0 to 100 scale where 0 is no effect and 100 is complete control; for Galium plant response rating: 500 g ai/ha, 0 to 100 scale, 0 is no effect, 100 is complete control
Summary of the method: as §2

[9] = tested on: soybean (Glycine max); experiment: Test C greenhouse herbicide test, pre- and postemergence
Summary of the method: (§3)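 Greenhouse pots; pre-em on seeded loam:sand blend, post-em on 2–18 cm plants (1–4 leaf) in sphagnum peat/vermiculite medium. Formulation: non-phytotoxic solvent + surfactant. Read-out: visual % control (0–100) vs controls at 13–15 d.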

[10] = tested on: ragweed (common ragweed, Ambrosia elatior); experiment: as above
Summary of the method: as §3

[11] = tested on: galium (catchweed bedstraw, Galium aparine); experiment: as above
Summary of the method: as §3

[12] = tested on: ryegrass, Italian (Italian ryegrass, Lolium multiflorum); experiment: as above
Summary of the method: as §3

[13] = Postemergence, 125 g ai/ha, 0 to 100 scale where 0 is no effect and 100 is complete control
[14] = Postemergence, 500 g ai/ha, 0 to 100 scale, 0 is no effect, 100 is complete control
[15] = Preemergence, 125 g ai/ha, 0 to 100 scale where 0 is no effect and 100 is complete control
[16] = Preemergence, 500 g ai/ha, 0 to 100 scale, 0 no effect, 100 complete control
[17] = Postemergence, 31 g ai/ha, 0 to 100 scale (0 no effect, 100 complete control)
[18] = Postemergence, 125 g ai/ha, scale 0 to 100, 0 is no effect, 100 is complete control
[19] = Postemergence, 250 g ai/ha, scale 0 to 100, 0 no effect, 100 complete control, 13 to 15 d
[20] = postemergence, 62 g ai/ha, scale 0 to 100, 0 no effect, 100 complete control
[21] = Preemergence, 31 g ai/ha, scale 0 to 100, 0 is no effect, 100 is complete control
[22] = Preemergence, 62 g ai/ha, scale 0 to 100, 0 is no effect, 100 is complete control
[23] = Preemergence, 125 g ai/ha, scale 0 to 100, 0 is no effect, 100 is complete control
[24] = Preemergence, 250 g ai/ha, scale 0 to 100 (0 no effect, 100 complete control)

With `Cc1ccc(-c2c(O)c(Br)nn(C)c2=O)c2ccccc12` [Compound 52] the “Plant response rating, Kochia” value [1, 13] was 40, the “Kochia plant response rating” value [1, 14] was 100 and the “Kochia plant response rating” value [1, 15] was 0. The “Plant response rating, Kochia” value [1, 16] was 80, the “Plant response rating, Ragweed” value [2, 13] was 90 and the “Ragweed plant response rating” value [2, 14] was 100. For the same compound, the “Ragweed plant response rating” value [2, 15] was 20, the “Plant response rating, Ragweed” value [2, 16] was 80 and the “Plant response rating, Corn” value [3] was 0. The “Corn plant response rating” value [3] was 20, the “Plant response rating, Wheat” value [4] was 0 and the “Wheat plant response rating” value [4] was 0. For the same compound, the “Plant response rating, Ryegrass, Italian” value [5, 13] was 70, the “Ryegrass, Italian plant response rating” value [5, 14] was 80 and the “Ryegrass, Italian plant response rating” value [5, 15] was 80. For the same compound, the “Plant response rating, Ryegrass, Italian” value [5, 16] was 80, the “Plant response rating, Foxtail, Giant” value [6, 13] was 40 and the “Foxtail, Giant plant response rating” value [6, 14] was 50. For the same compound, the “Foxtail, Giant plant response rating” value [6, 15] was 40, the “Plant response rating, Foxtail, Giant” value [6, 16] was 60 and the “Plant response rating, Blackgrass” value [7] was 20. For the same compound, the “Blackgrass plant response rating” value [7] was 30, the “Plant response rating, Galium” value [8] was 100 and the “Galium plant response rating” value [8] was 100. The “Soybean plant response rating” value [9, 17] was 0, the “Plant response rating, Soybean” value [9, 18] was 0 and the “Plant response rating, Soybean” value [9, 19] was 0. The “Soybean plant response rating” value [9, 20] was 0, the “Ragweed plant response rating” value [10, 17] was 55 and the “Plant response rating, Ragweed” value [10, 18] was 80. For the same compound, the “Plant response rating, Ragweed” value [10, 19] was 98, the “Ragweed plant response rating” value [10, 20] was 65 and the “Galium plant response rating” value [11, 17] was 90. The “Plant response rating, Galium” value [11, 18] was 100, the “Plant response rating, Galium” value [11, 19] was 100 and the “Galium plant response rating” value [11, 20] was 100. For the same compound, the “Ryegrass, Italian plant response rating” value [12, 17] was 10, the “Plant response rating, Ryegrass, Italian” value [12, 18] was 45 and the “Plant response rating, Ryegrass, Italian” value [12, 19] was 60. The “Ryegrass, Italian plant response rating” value [12, 20] was 40.
With `COc1nn(C)c(=O)c(-c2c(C)ccc3ccccc23)c1O` [Compound 54] the “Plant response rating, Kochia” value [1, 13] was 100, the “Kochia plant response rating” value [1, 14] was 100 and the “Kochia plant response rating” value [1, 15] was 50. The “Plant response rating, Kochia” value [1, 16] was 100, the “Plant response rating, Ragweed” value [2, 13] was 100 and the “Ragweed plant response rating” value [2, 14] was 100. For the same compound, the “Ragweed plant response rating” value [2, 15] was 90, the “Plant response rating, Ragweed” value [2, 16] was 100 and the “Plant response rating, Corn” value [3] was 20. For the same compound, the “Corn plant response rating” value [3] was 30, the “Plant response rating, Wheat” value [4] was 20 and the “Wheat plant response rating” value [4] was 20. The “Plant response rating, Ryegrass, Italian” value [5, 13] was 60, the “Ryegrass, Italian plant response rating” value [5, 14] was 100 and the “Ryegrass, Italian plant response rating” value [5, 15] was 30. The “Plant response rating, Ryegrass, Italian” value [5, 16] was 100, the “Plant response rating, Foxtail, Giant” value [6, 13] was 60 and the “Foxtail, Giant plant response rating” value [6, 14] was 90. For the same compound, the “Foxtail, Giant plant response rating” value [6, 15] was 60, the “Plant response rating, Foxtail, Giant” value [6, 16] was 100 and the “Plant response rating, Blackgrass” value [7] was 20. For the same compound, the “Blackgrass plant response rating” value [7] was 40, the “Plant response rating, Galium” value [8] was 100 and the “Galium plant response rating” value [8] was 100. The “Soybean plant response rating” value [9, 17] was 5, the “Plant response rating, Soybean” value [9, 18] was 10 and the “Plant response rating, Soybean” value [9, 19] was 10. For the same compound, the “Plant response rating, Soybean” value [9, 21] was 0, the “Plant response rating, Soybean” value [9, 22] was 90 and the “Plant response rating, Soybean” value [9, 23] was 0. The “Soybean plant response rating” value [9, 24] was 20, the “Soybean plant response rating” value [9, 20] was 5 and the “Ragweed plant response rating” value [10, 17] was 90. The “Plant response rating, Ragweed” value [10, 18] was 95, the “Plant response rating, Ragweed” value [10, 19] was 98 and the “Plant response rating, Ragweed” value [10, 21] was 90. For the same compound, the “Plant response rating, Ragweed” value [10, 22] was 90, the “Plant response rating, Ragweed” value [10, 23] was 95 and the “Ragweed plant response rating” value [10, 24] was 100. For the same compound, the “Ragweed plant response rating” value [10, 20] was 95, the “Galium plant response rating” value [11, 17] was 95 and the “Plant response rating, Galium” value [11, 18] was 98. For the same compound, the “Plant response rating, Galium” value [11, 19] was 98, the “Plant response rating, Galium” value [11, 21] was 95 and the “Plant response rating, Galium” value [11, 22] was 95. The “Plant response rating, Galium” value [11, 23] was 100, the “Galium plant response rating” value [11, 24] was 100 and the “Galium plant response rating” value [11, 20] was 98. The “Ryegrass, Italian plant response rating” value [12, 17] was 50, the “Plant response rating, Ryegrass, Italian” value [12, 18] was 85 and the “Plant response rating, Ryegrass, Italian” value [12, 19] was 80. The “Plant response rating, Ryegrass, Italian” value [12, 21] was 55, the “Plant response rating, Ryegrass, Italian” value [12, 22] was 50 and the “Plant response rating, Ryegrass, Italian” value [12, 23] was 80. The “Ryegrass, Italian plant response rating” value [12, 24] was 90 and the “Ryegrass, Italian plant response rating” value [12, 20] was 80.
